According to ChEMBL document CHEMBL1137024, “Acyl-CoA: cholesterol acyltransferase inhibitory activities of fatty acid amides isolated from Mylabris phalerate Pallas” (Bioorg Med Chem Lett, 2004):

Key:
[1] = biological target: Sterol O-acyltransferase 2 (Homo sapiens, UniProt O75908); assay: Inhibitory activity against human Acyl coenzyme A:cholesterol acyltransferase 2
[2] = biological target: T1, Sterol O-acyltransferase 1 (Rattus norvegicus, UniProt O70536); assay: Inhibitory activity against rat liver microsomal Acyl coenzyme A:cholesterol acyltransferase
T1 sequence (O70536 whole entry): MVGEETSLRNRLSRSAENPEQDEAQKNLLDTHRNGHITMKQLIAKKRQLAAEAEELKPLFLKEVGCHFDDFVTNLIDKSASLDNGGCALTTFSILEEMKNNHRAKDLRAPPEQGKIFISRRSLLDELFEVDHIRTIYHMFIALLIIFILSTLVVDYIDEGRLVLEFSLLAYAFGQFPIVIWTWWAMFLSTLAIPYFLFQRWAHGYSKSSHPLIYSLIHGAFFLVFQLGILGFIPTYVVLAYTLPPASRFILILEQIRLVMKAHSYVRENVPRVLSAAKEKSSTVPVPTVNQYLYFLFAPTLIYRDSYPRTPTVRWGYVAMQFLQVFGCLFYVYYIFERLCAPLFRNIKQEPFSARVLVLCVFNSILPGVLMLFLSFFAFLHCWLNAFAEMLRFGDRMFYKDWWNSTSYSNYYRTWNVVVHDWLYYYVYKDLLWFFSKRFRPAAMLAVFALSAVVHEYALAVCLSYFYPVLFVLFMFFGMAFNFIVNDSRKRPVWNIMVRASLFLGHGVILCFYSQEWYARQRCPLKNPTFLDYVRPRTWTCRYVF

[3] = biological target: T2, Sterol O-acyltransferase 1 (Homo sapiens, UniProt P35610); assay: Inhibitory activity against human Acyl coenzyme A:cholesterol acyltransferase 1
T2 sequence (P35610 whole entry): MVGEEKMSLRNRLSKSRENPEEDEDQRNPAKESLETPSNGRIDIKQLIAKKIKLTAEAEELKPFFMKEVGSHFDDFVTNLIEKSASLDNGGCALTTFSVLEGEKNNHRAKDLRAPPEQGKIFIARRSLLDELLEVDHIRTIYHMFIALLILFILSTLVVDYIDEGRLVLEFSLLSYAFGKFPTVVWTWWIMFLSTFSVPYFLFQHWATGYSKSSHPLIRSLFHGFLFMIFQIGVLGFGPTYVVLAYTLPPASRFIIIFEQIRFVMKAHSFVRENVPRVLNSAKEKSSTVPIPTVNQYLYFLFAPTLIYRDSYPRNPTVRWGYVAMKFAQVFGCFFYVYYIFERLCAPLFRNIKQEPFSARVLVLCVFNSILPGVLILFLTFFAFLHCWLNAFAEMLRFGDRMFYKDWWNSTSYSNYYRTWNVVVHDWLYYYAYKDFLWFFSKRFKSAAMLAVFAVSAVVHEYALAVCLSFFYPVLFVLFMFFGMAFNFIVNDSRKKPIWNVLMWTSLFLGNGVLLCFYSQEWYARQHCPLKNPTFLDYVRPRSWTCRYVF

Sterol O-acyltransferase 2, sequence (O75908 whole entry, looked up): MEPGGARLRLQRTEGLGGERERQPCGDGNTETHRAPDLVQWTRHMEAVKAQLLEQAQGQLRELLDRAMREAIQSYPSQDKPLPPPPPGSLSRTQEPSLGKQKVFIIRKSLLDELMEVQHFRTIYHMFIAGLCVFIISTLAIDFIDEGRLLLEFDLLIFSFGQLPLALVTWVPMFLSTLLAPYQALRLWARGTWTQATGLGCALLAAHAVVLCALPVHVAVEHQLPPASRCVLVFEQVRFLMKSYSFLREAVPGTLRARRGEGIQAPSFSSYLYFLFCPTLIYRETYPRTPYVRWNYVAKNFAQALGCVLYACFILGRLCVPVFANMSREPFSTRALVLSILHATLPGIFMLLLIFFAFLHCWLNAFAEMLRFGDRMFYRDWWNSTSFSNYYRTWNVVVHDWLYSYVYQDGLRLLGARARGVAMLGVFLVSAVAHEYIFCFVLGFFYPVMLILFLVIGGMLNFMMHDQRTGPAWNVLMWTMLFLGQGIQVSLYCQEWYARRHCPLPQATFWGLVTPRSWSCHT

Structure (SMILES)	IC50 [1] [µM]	IC50 [2] [µM]	IC50 [3] [µM]
CCCCCCCC/C=C\CCCCCCCC(=O)O [OLEIC ACID]	> 1000	> 1000	> 1000
CC(=O)OC[C@@]1(C)[C@@H]2C[C@H](OC(C)=O)[C@@]3(C)Oc4cc(-c5cccnc5)oc(=O)c4[C@H](O)[C@@H]3[C@@]2(C)CC[C@@H]1OC(C)=O [PYRIPYROPENE A]	–	0.17	–
CCCCC/C=C\C/C=C\CCCCCCCC(=O)O [LINOLEIC ACID]	> 1000	> 1000	> 1000
